The structures appear in SMILES notation.

Format in all cases: biochemical
For one assay, the target named is T1, aggrecanase-1 (Homo sapiens, UniProt O75173).
T1 sequence (O75173 213-837): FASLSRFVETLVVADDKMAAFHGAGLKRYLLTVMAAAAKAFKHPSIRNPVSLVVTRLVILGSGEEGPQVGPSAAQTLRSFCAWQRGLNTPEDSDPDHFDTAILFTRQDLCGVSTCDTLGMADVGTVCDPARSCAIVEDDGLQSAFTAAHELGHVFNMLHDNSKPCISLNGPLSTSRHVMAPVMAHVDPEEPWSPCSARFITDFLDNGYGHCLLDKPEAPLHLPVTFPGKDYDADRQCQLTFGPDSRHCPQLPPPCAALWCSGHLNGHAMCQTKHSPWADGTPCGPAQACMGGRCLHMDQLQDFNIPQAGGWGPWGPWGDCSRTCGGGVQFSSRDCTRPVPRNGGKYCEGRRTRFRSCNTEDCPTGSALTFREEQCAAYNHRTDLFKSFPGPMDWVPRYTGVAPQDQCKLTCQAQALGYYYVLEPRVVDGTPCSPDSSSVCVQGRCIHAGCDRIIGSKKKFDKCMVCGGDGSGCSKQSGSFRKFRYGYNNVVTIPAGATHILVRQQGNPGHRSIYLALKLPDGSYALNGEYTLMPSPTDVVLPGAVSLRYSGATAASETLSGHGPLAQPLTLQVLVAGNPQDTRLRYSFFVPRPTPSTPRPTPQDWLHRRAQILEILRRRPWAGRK
Put plainly: Aggrecanase-1 inhibitory action, Particle Assay (GAG release from aggrecan-containing polyacrylamide particles). The following applies: 37° C. for 15 hr, read-out: Experimental Example 1 IC50 AG1. The gist of the method: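 IC50 (μM) derived from % inhibition, referenced to enzyme-free and inhibitor-free wells, of GAG release read as 1,9-dimethylmethylene blue absorbance at 595 nm (chondroitin sulfate standard). Substrate: aggrecan-bearing polyacrylamide particles, exposed to enzyme plus compound in Tris-HCl for 15 hr at 37 °C.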

The target in the next assay is T2, MMP-1 (Homo sapiens, UniProt P03956).
T2 sequence (P03956 100-469): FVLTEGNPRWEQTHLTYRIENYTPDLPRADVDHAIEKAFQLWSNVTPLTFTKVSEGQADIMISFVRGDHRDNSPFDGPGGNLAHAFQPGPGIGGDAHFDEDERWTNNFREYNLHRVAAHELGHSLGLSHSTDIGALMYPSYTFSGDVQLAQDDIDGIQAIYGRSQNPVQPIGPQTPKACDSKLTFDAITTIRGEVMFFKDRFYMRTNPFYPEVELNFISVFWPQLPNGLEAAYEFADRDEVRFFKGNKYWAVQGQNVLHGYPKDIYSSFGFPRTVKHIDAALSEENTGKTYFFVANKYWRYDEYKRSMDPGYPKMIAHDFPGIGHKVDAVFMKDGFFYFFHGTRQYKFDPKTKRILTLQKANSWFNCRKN
Put plainly: MMP-1 inhibitory action, Type I collagen Activity Measurement kit (FITC-labeled collagen type I). The following applies: 37° C. for 3 hr, read-out: Experimental Example 2 IC50 MMP1.

A further assay has as its target T3, Recombinant Human MMP-13 (Homo sapiens, UniProt P45452).
T3 construct: purchased R&D systems 511-MM
As to the kind of experiment: MMP-13 inhibition, MMP-13 specific fluorescent substrate with quencher. The settings on record: synthetic substrate 7-MCA-Pro-CHA-Gly-NVal-His-Ala-DPA, 25° C. for 1 h; read-out: Experimental Example 3 IC50 MMP13. As to the method:
Inhibitory activity of tested compounds on MMP-13 was measured using MMP-13 specific fluorescent substrate with quencher.
The enzyme and substrate were diluted with Tris-HCl buffer, and test compounds were diluted with dimethyl sulfoxide (DMSO).
Test compounds and the enzyme (Recombinant Human MMP-13: R&D systems, 511-MM) were added into 96-well plate. The reaction was initiated by adding synthetic substrate (7-MCA-Pro-CHA-Gly-NVal-His-Ala-DPA: enzyme systems products, Met-06) into the plate. After incubation at 25° C. for 1 h, the reaction was terminated by addition of reaction terminating solution containing acetic acid. Fluorescence intensity of each well was measured (Ex: 325 nm, Em: 405 nm) and the MMP-13 inhibitory activity of the compound in each well (%) was calculated based on the values of enzyme-free well and inhibitor-free well. The inhibitory activity of the compound was represented as IC50 (μM).

In general, IC50 refers to the concentration that gives 50% inhibition. On to `O=C(O)[C@@]12C[C@@]1(c1ccccc1)COCN2S(=O)(=O)c1ccc(-c2ccc(Cl)cc2)s1` (relative stereo) [Example 2-01, (1R*,6S*)-2-[5-(4-chlorophenyl)-thiophene-2-sulfonyl]-6-phenyl-4-oxa-2-aza-bicyclo[4.1.0]heptane-1-carboxylic acid], for which the IC50 on aggrecanase-1 was ≥ 1 µM; on MMP-1, ≥ 10 µM; on Recombinant Human MMP-13, ≥ 1 µM.

`O=C(O)c1cnn(CCN([C@]2(C(=O)O)C[C@H]2c2ccccc2)S(=O)(=O)N2CCN(c3ccc(C(F)(F)F)cc3)CC2)c1` (relative stereo) [Example 2-05, 1-(2-{((1R*,2S*)-1-Carboxy-2-phenyl-cyclopropyl)-[4-(4-trifluoromethyl-phenyl)-piperazine-1-sulfonyl]-amino}-ethyl)-1H-pyrazole-4-carboxylic acid]: the IC50 at aggrecanase-1 is < 1 µM; at MMP-1, ≥ 10 µM; on Recombinant Human MMP-13 it was ≥ 1 µM.

As for `Nc1nnn(CCN([C@]2(C(=O)O)C[C@H]2c2ccccc2)S(=O)(=O)N2CCN(c3ccc(C(F)(F)F)cc3)CC2)n1` (relative stereo) [Example 2-06, (1R*,2S*)-1-{[2-(5-Amino-tetrazol-2-yl)-ethyl]-[4-(4-trifluoromethyl-phenyl)-piperazine-1-sulfonyl]-amino}-2-phenyl-cyclopropanecarboxylic acid], the half-maximal inhibitory concentration (IC50) on aggrecanase-1 was ≥ 1 µM; at MMP-1, ≥ 10 µM; on Recombinant Human MMP-13, ≥ 10 µM.

`Nc1nnnn1CCN([C@]1(C(=O)O)C[C@H]1c1ccccc1)S(=O)(=O)N1CCN(c2ccc(C(F)(F)F)cc2)CC1` (relative stereo) [Example 2-07, (1R*,2S*)-1-{[2-(5-Amino-tetrazol-1-yl)-ethyl]-[4-(4-trifluoromethyl-phenyl)-piperazine-1-sulfonyl]-amino}-2-phenyl-cyclopropanecarboxylic acid]: the IC50 is ≥ 1 µM at aggrecanase-1, ≥ 10 µM at MMP-1 and ≥ 10 µM at Recombinant Human MMP-13.

As for `O=C(O)[C@@]12C[C@]1(c1ccccc1)CCCN2S(=O)(=O)c1ccc(-c2ccc(Cl)cc2)s1` (relative stereo) [Example 2-13, (1R*,6S*)-2-[5-(4-Chloro-phenyl)-thiophene-2-sulfonyl]-6-phenyl-2-aza-bicyclo[4.1.0]heptane-1-carboxylic acid], the half-maximal inhibitory concentration (IC50) at aggrecanase-1 was < 1 µM; at MMP-1, ≥ 10 µM; on Recombinant Human MMP-13, ≥ 1 µM.

On to `O=C(O)[C@@]12C[C@]1(c1ccccc1)CCCN2S(=O)(=O)c1ccc(-c2cc(C(F)(F)F)on2)s1` (relative stereo) [Example 2-22, (1R*,6S*)-6-Phenyl-2-[5-(5-trifluoromethyl-isoxazol-3-yl)-thiophene-2-sulfonyl]-2-aza-bicyclo[4.1.0]heptane-1-carboxylic acid], for which the half-maximal inhibitory concentration (IC50) on aggrecanase-1 is ≥ 1 µM; at MMP-1, ≥ 10 µM; on Recombinant Human MMP-13 it was ≥ 1 µM.

In the case of `O=C(O)[C@@]12C[C@]1(c1ccccc1)CCN2S(=O)(=O)c1ccc(-c2ccc(Cl)cc2)s1` (relative stereo) [Example 2-23, (1R*,5S*)-2-[5-(4-Chloro-phenyl)-thiophene-2-sulfonyl]-5-phenyl-2-aza-bicyclo[3.1.0]hexane-1-carboxylic acid], the IC50 is ≥ 1 µM at aggrecanase-1, ≥ 10 µM on MMP-1 and ≥ 1 µM at Recombinant Human MMP-13.

Regarding `CN([C@]1(C(=O)O)C[C@@]1(CN1CCOCC1)c1ccccc1)S(=O)(=O)c1ccc(-c2cc(C(F)(F)F)on2)s1` (relative stereo) [Example 2-24, (1R*,2S*)-1-{Methyl-[5-(5-trifluoromethyl-isoxazol-3-yl)-thiophene-2-sulfonyl]-amino}-2-morpholin-4-ylmethyl-2-phenyl-cyclopropanecarboxylic acid], the IC50 is ≥ 1 µM at aggrecanase-1, ≥ 10 µM on MMP-1 and ≥ 10 µM at Recombinant Human MMP-13.

In the case of `O=C(O)[C@@]12C[C@]1(c1ccccc1)COC(CO)CN2S(=O)(=O)c1ccc(-c2ccc(Cl)cc2)s1` (relative stereo) [Example 2-26, (1R*,7R*)-2-[5-(4-Chloro-phenyl)-thiophene-2-sulfonyl]-4-hydroxymethyl-7-phenyl-5-oxa-2-aza-bicyclo[5.1.0]octane-1-carboxylic acid], the IC50 at aggrecanase-1 was ≥ 1 µM; on MMP-1 it was ≥ 10 µM; at Recombinant Human MMP-13 it was ≥ 1 µM.

As to `O=C(O)c1cc(CN(C2(C(=O)O)CC2c2ccccc2)S(=O)(=O)c2ccc(-c3ccc(Cl)cc3)cc2)on1` [Example 1-82, 5-{[((R, 2S*-1-carboxy-2-phenyl-cyclopropyl)-(4′-chloro-biphenyl-4-sulfonyl)-amino]-methyl}-isooxazole-3-carboxylic acid], the results for the IC50 on aggrecanase-1 and at MMP-1 were < 1 µM and ≥ 10 µM, respectively.

For the compound `O=C1NS(=O)(=O)N(CCN(C2(C(=O)O)CC2c2ccccc2)S(=O)(=O)c2ccc(-c3ccc(Cl)cc3)cc2)C1=O` (stereo not drawn) [Example 1-83, (1R*,2S*)-1-{(4′-chloro-biphenyl-4-sulfonyl)-[2-(1,1,3,4-tetraoxo-llambda*6*-[1,2,5]thiadiazolidin-2-yl)-ethyl]-amino}-2-phenyl-cyclopropanecarboxylic acid], the IC50 at aggrecanase-1 was < 0.1 µM; at MMP-1 it was ≥ 10 µM.

Consider `NS(=O)(=O)NCCN(C1(C(=O)O)CC1c1ccccc1)S(=O)(=O)c1ccc(-c2ccc(Cl)cc2)cc1` (stereo not shown) [Example 1-84], for which the IC50 is < 1 µM on aggrecanase-1 and ≥ 10 µM at MMP-1.

Regarding `O=C(O)c1cccc(CN(C2(C(=O)O)CC2c2cccc(OCCn3ccnc3)c2)S(=O)(=O)c2ccc(-c3ccc(Cl)cc3)cc2)c1` (stereo not drawn) [Example 1-95, 3-{[{(1R*,2S*-1-carboxy-2-[3-(2-imidazol-1-yl-ethoxy)-phenyl]-cyclopropyl}-(4′-chloro-biphenyl-4-sulfonyl)-amino]-methyl}-benzoic acid], the IC50 at aggrecanase-1 was < 0.1 µM; on MMP-1, ≥ 1 µM.

On to `O=C(O)c1cccc(CN(C2(C(=O)O)CC2c2cccc(Oc3cccnc3)c2)S(=O)(=O)c2ccc(-c3ccc(Cl)cc3)cc2)c1` (stereo not drawn) [Example 1-102, 3-{[{(1R*,2S*-1-carboxy-2-[3-(pyridin-3-yloxy)-phenylcyclopropyl}-(4′-chloro-biphenyl-4-sulfonyl)-amino]-methyl}-benzoic acid], for which the IC50 at aggrecanase-1 was < 0.1 µM; on MMP-1 it was ≥ 10 µM.

As to `O=C(O)C(=O)c1ccc(CN(C2(C(=O)O)CC2c2ccccc2)S(=O)(=O)c2ccc(-c3ccc(Cl)cc3)cc2)cc1` (stereo not drawn) [Example 1-103, (1R*,2S*)-1-[(4′-chloro-biphenyl-4-sulfonyl)-(4-oxalyl-benzyl)-amino]-2-phenyl-cyclopropanecarboxylic acid], the IC50 on aggrecanase-1 was < 0.1 µM; on MMP-1, ≥ 10 µM.

For `O=C(O)c1cn(CCN(C2(C(=O)O)CC2c2ccccc2)S(=O)(=O)c2ccc(-c3ccc(Cl)cc3)cc2)cn1` (stereo not drawn) [Example 1-104, 1-{2-[(1R*,2S*)-1-carboxy-2-phenyl-cyclopropyl)-(4′-chloro-biphenyl-4-sulfonyl)-amino]-ethyl}-1H-imidazole-4-carboxylic acid], the values for the IC50 on aggrecanase-1 and at MMP-1 were < 0.1 µM and ≥ 10 µM, respectively.

On to `O=C(O)[C@@]1(N(CCN2CCOCC2)S(=O)(=O)c2ccc(-c3ccc(Cl)cc3)s2)C[C@H]1c1ccccc1` [Example 2-14, (1R,2S)-1-[[5-(4-Chloro-phenyl)-thiophene-2-sulfonyl]-(2-morpholin-4-yl-ethyl)-amino]-2-phenyl-cyclopropanecarboxylic acid], for which the IC50 on aggrecanase-1 was ≥ 1 µM; at MMP-1 it was ≥ 10 µM.

The values are drawn from patent US20050222146A1, “N-substituted-n-sulfonylaminocyclopropane compounds and pharmaceutical use thereof” (priority 2003, published 2005).
